Test [1] deals with T1, Peroxisomal acyl-coenzyme A oxidase 3 (Homo sapiens, UniProt O15254).
T1 sequence (O15254 whole entry): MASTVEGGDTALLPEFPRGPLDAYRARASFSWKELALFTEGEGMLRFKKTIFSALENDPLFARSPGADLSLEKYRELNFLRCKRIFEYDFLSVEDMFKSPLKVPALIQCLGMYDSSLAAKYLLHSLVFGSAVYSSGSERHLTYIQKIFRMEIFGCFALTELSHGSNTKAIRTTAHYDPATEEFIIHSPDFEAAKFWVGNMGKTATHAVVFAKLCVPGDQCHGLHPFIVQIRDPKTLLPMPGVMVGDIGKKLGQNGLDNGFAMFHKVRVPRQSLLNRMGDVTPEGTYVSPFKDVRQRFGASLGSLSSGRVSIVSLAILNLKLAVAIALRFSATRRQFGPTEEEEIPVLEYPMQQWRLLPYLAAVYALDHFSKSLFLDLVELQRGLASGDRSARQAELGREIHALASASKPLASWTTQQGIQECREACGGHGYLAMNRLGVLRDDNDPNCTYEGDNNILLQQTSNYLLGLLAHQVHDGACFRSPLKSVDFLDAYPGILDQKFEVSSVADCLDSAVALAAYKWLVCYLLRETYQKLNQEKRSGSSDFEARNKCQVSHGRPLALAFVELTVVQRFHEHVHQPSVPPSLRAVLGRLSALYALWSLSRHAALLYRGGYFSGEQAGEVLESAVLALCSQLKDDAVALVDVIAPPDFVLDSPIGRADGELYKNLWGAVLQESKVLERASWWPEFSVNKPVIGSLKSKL

Another test concerns the target T2, Ephrin type-B receptor 4 (Homo sapiens, UniProt P54760).
T2 sequence (P54760 whole entry): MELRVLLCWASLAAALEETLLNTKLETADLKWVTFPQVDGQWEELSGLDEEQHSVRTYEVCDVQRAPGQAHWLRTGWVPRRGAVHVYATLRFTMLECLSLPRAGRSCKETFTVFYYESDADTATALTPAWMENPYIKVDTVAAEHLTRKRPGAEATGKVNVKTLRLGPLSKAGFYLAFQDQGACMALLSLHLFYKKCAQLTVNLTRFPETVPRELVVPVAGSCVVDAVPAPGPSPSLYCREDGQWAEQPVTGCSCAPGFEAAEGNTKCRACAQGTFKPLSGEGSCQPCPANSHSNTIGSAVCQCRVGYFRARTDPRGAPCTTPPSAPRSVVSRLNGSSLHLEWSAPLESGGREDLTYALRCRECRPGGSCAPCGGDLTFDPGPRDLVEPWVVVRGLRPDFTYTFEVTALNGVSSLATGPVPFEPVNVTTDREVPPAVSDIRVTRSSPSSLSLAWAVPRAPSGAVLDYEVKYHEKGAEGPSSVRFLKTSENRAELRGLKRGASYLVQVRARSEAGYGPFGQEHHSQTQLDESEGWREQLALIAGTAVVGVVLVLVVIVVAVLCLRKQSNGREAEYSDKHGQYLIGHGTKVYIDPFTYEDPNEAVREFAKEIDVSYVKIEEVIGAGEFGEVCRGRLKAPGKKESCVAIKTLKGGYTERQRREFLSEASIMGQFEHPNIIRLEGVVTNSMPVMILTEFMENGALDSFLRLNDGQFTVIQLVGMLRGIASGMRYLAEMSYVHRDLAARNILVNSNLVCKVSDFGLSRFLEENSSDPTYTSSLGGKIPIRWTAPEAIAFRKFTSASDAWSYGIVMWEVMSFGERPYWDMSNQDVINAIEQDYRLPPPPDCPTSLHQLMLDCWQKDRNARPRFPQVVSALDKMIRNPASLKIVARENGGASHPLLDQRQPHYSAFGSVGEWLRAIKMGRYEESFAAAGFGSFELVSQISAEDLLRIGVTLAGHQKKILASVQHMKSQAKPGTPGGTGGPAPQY

The next test deals with GTP-binding protein 4 (Homo sapiens, UniProt Q9BZE4).
Test [2] has as its target Mitogen-activated protein kinase 1 (Homo sapiens, UniProt P28482).
For test [3], the target named is Rho-associated protein kinase 2 (Homo sapiens, UniProt O75116).
For test [4], the target named is Serine/threonine-protein kinase 10 (Homo sapiens, UniProt O94804).
The target in test [5] is T3, Serine/threonine-protein kinase 4 (Homo sapiens, UniProt Q13043).
T3 sequence (Q13043 whole entry): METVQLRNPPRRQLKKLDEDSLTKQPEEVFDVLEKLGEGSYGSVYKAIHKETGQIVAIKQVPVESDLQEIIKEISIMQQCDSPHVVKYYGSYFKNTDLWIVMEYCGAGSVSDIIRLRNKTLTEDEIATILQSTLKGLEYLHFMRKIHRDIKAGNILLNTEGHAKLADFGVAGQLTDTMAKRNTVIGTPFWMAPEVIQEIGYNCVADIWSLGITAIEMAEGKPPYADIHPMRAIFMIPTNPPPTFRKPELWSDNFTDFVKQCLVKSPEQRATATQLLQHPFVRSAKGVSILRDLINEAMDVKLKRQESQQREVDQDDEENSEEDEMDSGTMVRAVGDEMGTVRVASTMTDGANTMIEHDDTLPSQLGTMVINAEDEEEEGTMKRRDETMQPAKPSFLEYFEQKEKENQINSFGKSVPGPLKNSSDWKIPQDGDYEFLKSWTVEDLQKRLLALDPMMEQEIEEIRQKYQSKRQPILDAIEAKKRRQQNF

This passage reports Kd results from ChEMBL document CHEMBL3991601, “The target landscape of clinical kinase drugs” (Science, 2017).

pKd: −log10 of the molar value. Activity calls are given as the source filed them. Cut-off read from the data, not from the text of the source, for most assays here: actives have a measured Kd and inactives only a lower limit.
Note: in the data inactive means no Kd found up to 30 µM.

Sequence of Rho-associated protein kinase 2 (O75116 whole entry): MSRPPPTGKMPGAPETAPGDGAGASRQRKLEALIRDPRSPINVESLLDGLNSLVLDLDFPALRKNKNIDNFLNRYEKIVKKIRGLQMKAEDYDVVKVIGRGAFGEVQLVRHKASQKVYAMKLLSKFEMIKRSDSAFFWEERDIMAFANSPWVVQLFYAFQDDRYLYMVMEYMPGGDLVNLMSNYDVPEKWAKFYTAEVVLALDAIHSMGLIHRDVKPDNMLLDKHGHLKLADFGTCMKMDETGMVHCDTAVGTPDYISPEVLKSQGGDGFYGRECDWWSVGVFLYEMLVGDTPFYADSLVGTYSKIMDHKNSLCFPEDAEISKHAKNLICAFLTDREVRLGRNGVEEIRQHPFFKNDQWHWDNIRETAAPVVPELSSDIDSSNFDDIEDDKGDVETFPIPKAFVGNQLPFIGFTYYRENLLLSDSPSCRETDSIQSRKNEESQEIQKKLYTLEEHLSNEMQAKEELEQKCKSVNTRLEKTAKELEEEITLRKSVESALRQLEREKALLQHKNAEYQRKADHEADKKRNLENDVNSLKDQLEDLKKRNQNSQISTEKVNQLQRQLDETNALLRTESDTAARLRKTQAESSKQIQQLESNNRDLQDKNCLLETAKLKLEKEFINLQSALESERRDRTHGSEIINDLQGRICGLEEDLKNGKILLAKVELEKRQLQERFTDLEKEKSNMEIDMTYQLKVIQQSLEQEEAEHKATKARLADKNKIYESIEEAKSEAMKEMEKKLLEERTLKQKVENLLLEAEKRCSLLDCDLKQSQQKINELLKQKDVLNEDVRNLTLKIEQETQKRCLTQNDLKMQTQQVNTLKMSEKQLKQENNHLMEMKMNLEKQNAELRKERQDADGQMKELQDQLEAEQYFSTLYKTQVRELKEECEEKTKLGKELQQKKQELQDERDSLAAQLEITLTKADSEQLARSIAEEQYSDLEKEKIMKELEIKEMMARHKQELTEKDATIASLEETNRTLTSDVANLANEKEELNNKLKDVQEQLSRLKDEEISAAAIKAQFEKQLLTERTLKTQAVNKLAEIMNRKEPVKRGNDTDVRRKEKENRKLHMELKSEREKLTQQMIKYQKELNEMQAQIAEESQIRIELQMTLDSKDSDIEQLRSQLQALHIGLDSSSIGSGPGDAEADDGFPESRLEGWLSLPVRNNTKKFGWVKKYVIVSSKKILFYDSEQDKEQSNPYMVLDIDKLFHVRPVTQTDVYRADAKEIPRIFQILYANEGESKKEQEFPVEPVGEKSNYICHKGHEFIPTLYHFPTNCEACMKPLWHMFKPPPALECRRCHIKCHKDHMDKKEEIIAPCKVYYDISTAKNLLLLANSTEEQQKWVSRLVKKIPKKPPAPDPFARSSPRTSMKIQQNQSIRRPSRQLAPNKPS
Sequence of Serine/threonine-protein kinase 10 (O94804 whole entry): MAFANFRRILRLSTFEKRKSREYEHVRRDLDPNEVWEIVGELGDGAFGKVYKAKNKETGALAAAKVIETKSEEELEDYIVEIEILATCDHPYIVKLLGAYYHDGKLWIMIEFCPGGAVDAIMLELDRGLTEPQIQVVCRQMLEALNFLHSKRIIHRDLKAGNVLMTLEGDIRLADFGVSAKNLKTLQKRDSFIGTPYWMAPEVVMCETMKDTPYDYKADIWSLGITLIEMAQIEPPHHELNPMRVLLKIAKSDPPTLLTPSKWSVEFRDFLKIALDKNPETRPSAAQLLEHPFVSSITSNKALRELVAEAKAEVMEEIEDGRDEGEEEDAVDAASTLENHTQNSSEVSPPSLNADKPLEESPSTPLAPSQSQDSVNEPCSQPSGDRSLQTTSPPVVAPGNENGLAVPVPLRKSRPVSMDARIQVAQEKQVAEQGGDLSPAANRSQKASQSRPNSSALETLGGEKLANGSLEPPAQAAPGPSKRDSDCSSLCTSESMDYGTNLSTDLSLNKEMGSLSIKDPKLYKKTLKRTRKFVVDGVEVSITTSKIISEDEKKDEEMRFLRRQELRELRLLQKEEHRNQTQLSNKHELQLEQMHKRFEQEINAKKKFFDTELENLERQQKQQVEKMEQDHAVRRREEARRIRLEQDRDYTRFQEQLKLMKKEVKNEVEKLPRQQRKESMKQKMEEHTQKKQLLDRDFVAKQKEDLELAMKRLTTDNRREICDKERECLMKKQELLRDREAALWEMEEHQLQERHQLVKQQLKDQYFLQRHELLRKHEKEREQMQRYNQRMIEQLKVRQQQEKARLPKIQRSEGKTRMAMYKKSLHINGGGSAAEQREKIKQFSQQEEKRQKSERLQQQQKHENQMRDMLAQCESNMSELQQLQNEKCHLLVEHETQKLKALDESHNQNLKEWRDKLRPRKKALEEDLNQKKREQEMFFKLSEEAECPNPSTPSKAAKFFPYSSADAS
Sequence of Mitogen-activated protein kinase 1 (P28482 whole entry): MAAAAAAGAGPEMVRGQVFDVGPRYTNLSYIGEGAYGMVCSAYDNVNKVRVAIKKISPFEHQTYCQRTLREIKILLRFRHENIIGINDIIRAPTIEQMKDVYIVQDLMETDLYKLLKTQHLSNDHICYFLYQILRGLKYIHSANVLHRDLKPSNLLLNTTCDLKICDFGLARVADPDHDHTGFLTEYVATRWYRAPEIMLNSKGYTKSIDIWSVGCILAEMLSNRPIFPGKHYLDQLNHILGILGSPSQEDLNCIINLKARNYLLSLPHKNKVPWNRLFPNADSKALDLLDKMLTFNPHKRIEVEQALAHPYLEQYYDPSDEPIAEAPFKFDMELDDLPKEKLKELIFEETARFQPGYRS

Turning to `O=C(Cc1ccc(-c2ccc(OCCN3CCOCC3)cc2)cn1)NCc1ccccc1` [TIRBANIBULIN], the Kd (in test [1]; at Ephrin type-B receptor 4; on GTP-binding protein 4; in test [2]; in test [3]; in test [4]) was > 30 µM (inactive) each time. In test [5], the Kd is > 30 µM (inactive).

Regarding `O=C1NC(=O)[C@@H](c2cn3c4c(cccc24)CCC3)[C@@H]1c1c[nH]c2ccccc12` [TIVANTINIB], the Kd (in test [1]; on Ephrin type-B receptor 4; at GTP-binding protein 4; in test [2]; in test [3]; in test [4]) was > 30 µM (inactive) throughout. In test [5], the Kd is > 30 µM (inactive).

In the case of `C[C@@H](NC(=O)c1ncnc(N)c1Cl)c1ncc(C(=O)Nc2cc(C(F)(F)F)c(Cl)cn2)s1` [TOVORAFENIB], the Kd in test [1] is > 30 µM (inactive); on Ephrin type-B receptor 4, 9.43 µM (active); on GTP-binding protein 4, > 30 µM (inactive); in test [2], > 30 µM (inactive); in test [3], > 30 µM (inactive); in test [4], > 30 µM (inactive). For the same molecule, in test [5], the Kd is > 30 µM (inactive).

On to `Cc1cc(Nc2ncnc3ccc(NC4=NC(C)(C)CO4)cc23)ccc1Oc1ccn2ncnc2c1` [TUCATINIB], for which the Kd (in test [1]; on Ephrin type-B receptor 4; at GTP-binding protein 4; in test [2]; in test [3]; in test [4]) was > 30 µM (inactive) throughout. For the same molecule, the Kd in test [5] was > 30 µM (inactive).

For `Cn1ncc(Cl)c1-c1cc(C(=O)N[C@H](CN)Cc2ccc(F)c(F)c2)oc1Cl` [UPROSERTIB], the Kd in test [1] was > 30 µM (inactive); on Ephrin type-B receptor 4, > 30 µM (inactive); on GTP-binding protein 4 it was > 30 µM (inactive); in test [2], > 30 µM (inactive); in test [3] it was 2.28 µM (active); in test [4], > 30 µM (inactive). The Kd in test [5] was > 30 µM (inactive).

Consider `CN1C/C=C/CCOc2cccc(c2)-c2ccnc(n2)Nc2cccc(c2)C1` [ZOTIRACICLIB], for which the Kd is > 30 µM (inactive) in test [1]; > 30 µM (inactive) at Ephrin type-B receptor 4; > 30 µM (inactive) on GTP-binding protein 4; > 30 µM (inactive) in test [2]; 9.95 µM (active) in test [4]; 1.8 µM (active) in test [5]. Further, the pKd in test [3] was 4.23.
